{"source": "patent US9376416B2", "about": "“Composition containing scirpusin B, and process for producing composition containing scirpusin B” (MORINAGA & CO., LTD., priority 2010, dated 2016)", "origin": "cited, not measured here", "key": {"xanthine oxidase": {"biological_target": "xanthine oxidase (Homo sapiens, UniProt P47989)", "sequence (P47989 whole entry, species assumed)": "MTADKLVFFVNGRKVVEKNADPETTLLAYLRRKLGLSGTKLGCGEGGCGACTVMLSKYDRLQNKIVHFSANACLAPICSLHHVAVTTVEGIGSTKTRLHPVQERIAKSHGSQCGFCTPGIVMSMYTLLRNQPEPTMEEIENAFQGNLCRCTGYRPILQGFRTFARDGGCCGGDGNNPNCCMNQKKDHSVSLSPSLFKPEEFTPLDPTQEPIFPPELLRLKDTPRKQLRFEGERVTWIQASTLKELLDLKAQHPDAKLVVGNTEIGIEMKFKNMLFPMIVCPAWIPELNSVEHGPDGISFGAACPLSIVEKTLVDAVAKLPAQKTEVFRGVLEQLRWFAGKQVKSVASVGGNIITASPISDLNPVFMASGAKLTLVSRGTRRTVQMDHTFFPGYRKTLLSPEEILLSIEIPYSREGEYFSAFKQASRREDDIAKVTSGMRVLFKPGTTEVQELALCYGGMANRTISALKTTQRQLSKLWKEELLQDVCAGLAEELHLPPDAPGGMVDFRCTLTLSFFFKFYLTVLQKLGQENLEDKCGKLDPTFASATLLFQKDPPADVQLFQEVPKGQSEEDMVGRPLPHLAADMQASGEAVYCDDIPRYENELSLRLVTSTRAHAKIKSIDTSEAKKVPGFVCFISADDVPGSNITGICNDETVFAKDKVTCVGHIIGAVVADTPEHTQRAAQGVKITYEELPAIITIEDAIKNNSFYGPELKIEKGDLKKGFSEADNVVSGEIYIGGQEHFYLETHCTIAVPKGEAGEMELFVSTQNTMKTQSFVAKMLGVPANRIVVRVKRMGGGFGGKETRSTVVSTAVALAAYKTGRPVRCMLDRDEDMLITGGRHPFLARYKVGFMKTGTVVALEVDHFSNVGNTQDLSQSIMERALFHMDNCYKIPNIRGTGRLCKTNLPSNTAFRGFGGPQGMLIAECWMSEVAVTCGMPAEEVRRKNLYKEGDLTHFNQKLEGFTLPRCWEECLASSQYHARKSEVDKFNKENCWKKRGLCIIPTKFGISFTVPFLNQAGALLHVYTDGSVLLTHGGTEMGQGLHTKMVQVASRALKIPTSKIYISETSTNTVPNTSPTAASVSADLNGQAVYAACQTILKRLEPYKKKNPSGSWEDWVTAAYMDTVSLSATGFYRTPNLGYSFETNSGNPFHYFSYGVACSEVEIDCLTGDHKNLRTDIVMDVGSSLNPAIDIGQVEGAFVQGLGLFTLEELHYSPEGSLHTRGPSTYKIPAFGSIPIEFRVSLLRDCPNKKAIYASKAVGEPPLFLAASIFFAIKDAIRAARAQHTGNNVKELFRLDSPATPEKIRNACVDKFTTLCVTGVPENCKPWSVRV", "settings": "reported in Non-Patent Citation 4"}, "[1]": {"settings": "reported in Non-Patent Citation 2"}, "α-amylase": {"system": "α-amylase", "settings": "reported in Non-Patent Citation 3 (mouse α-amylase)"}, "HIV": {"system": "HIV", "settings": "reported in Non-Patent Citation 1"}}}
{"compound": "Oc1cc(O)cc(C2c3c(/C=C/c4ccc(O)c(O)c4)cc(O)cc3OC2c2ccc(O)c(O)c2)c1", "note": "(stereo not shown) [scirpusin B]", "values": [{"measurement": "xanthine oxidase inhibitory activity", "setting": "xanthine oxidase", "value": "has xanthine oxidase inhibitory activity"}, {"measurement": "superoxide anion removal activity", "setting": "[1]", "value": "has superoxide anion removal activity"}, {"measurement": "α-amylase activity inhibitory activity", "setting": "α-amylase", "value": "has α-amylase activity inhibitory activity"}, {"measurement": "anti-HIV activity", "setting": "HIV", "value": "has anti-HIV activity"}]}
